Assay results reported in patent US12441688B1, “CCR5 inhibitor” (KING SAUD UNIVERSITY, priority 2025, dated 2025).

Molecular target: T1, CCR5 receptor (Homo sapiens, UniProt P51681)
T1 construct: expressed in transfected cells; host or cells: Chinese hamster ovary (CHO) cells expressing the CCR5 receptor, kept under blasticidin S selection
Assay: CCR5 binding inhibition assay in CHO cells expressing the CCR5 receptor
Source text: All of the reagents and cell lines were obtained from commercial suppliers like Sigma Aldrich, Merck India Ltd., Himedia, and Rankem chemicals. Chinese Hamster Ovaries (CHO) cells expressing the CCR5 receptor were maintained in Ham's F-12 medium supplemented with 10% fetal calf serum, 50 units of penicillin per milliliter, and 50 micrograms of streptomycin per milliliter, in the presence of 5 micrograms of blasticidin S hydrochloride per milliliter. […] The cells were then washed. […] The inhibitory activity of the compounds on CCR5 binding was calculated using the formula: [1−(E−N)/(P−N)]×100%.
In this formula, N represents the absorbance at 450 nm in the negative control (the control antibody), while P corresponds to the absorbance in the positive control (the detecting antibody). E corresponds to the absorbance of the test compounds.
The data was analyzed using non-linear regression analysis to determine the IC50 values for both compounds.

T1 sequence (P51681 whole entry): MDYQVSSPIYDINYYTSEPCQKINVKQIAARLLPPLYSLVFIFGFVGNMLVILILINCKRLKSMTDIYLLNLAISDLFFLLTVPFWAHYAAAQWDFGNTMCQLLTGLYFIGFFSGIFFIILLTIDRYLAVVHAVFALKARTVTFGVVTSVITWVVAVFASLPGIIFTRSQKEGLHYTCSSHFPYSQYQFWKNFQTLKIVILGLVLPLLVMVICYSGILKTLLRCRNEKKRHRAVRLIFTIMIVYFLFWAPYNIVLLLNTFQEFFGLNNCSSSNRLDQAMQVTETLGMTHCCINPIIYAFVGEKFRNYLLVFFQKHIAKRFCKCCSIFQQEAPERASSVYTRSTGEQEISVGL

Molecule | Percent inhibition against CCR5 (1 nM compound, listed as test compound, 0.001 µM) | inhibition at 0.001 µM (1 nM compound, read-out: Percent inhibition against CCR5) | Percent inhibition against CCR5 (10 nM compound, listed as test compound, 0.01 µM) | inhibition at 0.01 µM (10 nM compound, read-out: Percent inhibition against CCR5) | Percent inhibition against CCR5 (100 nM compound, 0.1 µM) | inhibition at 0.1 µM (100 nM compound, read-out: Percent inhibition against CCR5) | Percent inhibition against CCR5 (1000 nM compound, 1 µM) | inhibition at 1 µM (1000 nM compound, read-out: Percent inhibition against CCR5) | Percent inhibition against CCR5 (2000 nM compound, listed as test compound, 2 µM) | inhibition at 2 µM (2000 nM compound, read-out: Percent inhibition against CCR5) | IC50 (non-linear regression) | Percent inhibition against CCR5 (1 nM compound) | Percent inhibition against CCR5 (10 nM compound) | Percent inhibition against CCR5 (100 nM compound) | Percent inhibition against CCR5 (1000 nM compound) | Percent inhibition against CCR5 (2000 nM compound)
Cc1n[nH]c(C(C)C)c1C(=O)N1CCCN(Cc2ccc(Oc3ccc(C#N)cc3)cc2)CC1 [Novel Compound, 4-(4-((4-(5-isopropyl-3-methyl-1H-pyrazole-4-carbonyl)-1,4-diazepan-1-yl)methyl)phenoxy)benzonitrile] | 24.5% | ≥ 24.5% | 39.8% | ≥ 39.8% | 59.1 ± 3.12% | ≥ 59.1% | 78.2 ± 4.75% | ≥ 78.2% | 91.3% | ≥ 91.3% | 2.62 nM | – | – | – | – | –
Maraviroc [reference compound] | – | – | – | – | – | – | – | – | – | – | – | 20.0 ± 1.93% | 28.5 ± 2.40% | 55.1 ± 2.81% | 68.2 ± 2.97% | 85.3%
